Assay results as given in patent publication US4762789A, “Serodiagnostic reagent for entamoeba histolytica” (priority 1986, dated 1988).
Where two headings read alike, the source gives them in different places. Non-standard residues stand in square brackets, D forms with d. Residues, ends and D or L forms follow the SMILES beside them. *: point of attachment. Sta = CC(C)C[C@H](N)[C@@H](O)CC(=O)O; Isovaleryl = CC(C)CC(=O)*

Assays:
[1] = tested on: culture supernatant proteinase activity (Entamoeba histolytica trophozoites); test: Inhibition of culture supernatant proteolytic activity, Z-Arg-Arg-AMC assay; type: biochemical
Method: (§1) "Log-phase" trophozoites (72 hours after passage) were washed to remove serum, and incubated in PBS with penicillin/streptomycin for 3 hours at 37° C. Amebae maintained greater than 90% viability as judged by Trypan blue exclusion and the absence of cytosolic alcohol dehydrogenase activity (Vallee 1955) in the PBS after incubation. Amebae were centrifuged, and the resulting supernatant passed through a 0.45 micron filter. This was designated as crude culture supernatant (CS).
The Z-Arg-Arg-AMC assay is based on the fluorescence of the cleaved AMC group at 460 nm when excited at 380 nm (Castillo, et al, 1979). Enzyme samples (5-25 microliters) were added to a 4 micromolar solution of Z-Arg-Arg-AMC in buffer to a total volume of 2 ml. The rate of substrate hydrolysis at room temperature was determined from the rate of increase of fluorescence, monitored on a continuously recording spectrofluorometer (Aminco SPF-500; American Instrument Co., Silver Spring, MD). The scale was calibrated with a stock solution of 1.3 micromolar AMC (Sigma).
(§2) Inhibitors were preincubated with the enzyme at the indicated concentrations (See Table 1) for 20 minutes at ambient temperature; substrate was then added and proteolytic activity assayed against Z-Arg-Arg-AMC. All inhibitors were obtained from Sigma except pepstatin A (Transformation Research, Inc., Farminham, MA) and bovine serum (Biofluids). TLCK was prepared as a stock solution in dimethyl sulfoxide (DMSO). Phenlylmethylsulfonyl fluoride (PMSF), pepstatin A, and 1,10-phenanthroline stock solutions were made up in ethanol. An equal volume of DMSO or ethanol alone was tested with enzynme and inhibition was calculated relative to the appropriate solvent control.

[2] = tested on: lysate and culture supernatant proteolytic activity; type: biochemical, Entamoeba histolytica
Method: as §1
For extracts, trophozoites were resuspended in PBS with penicillin/streptomycin and lysed in a nitrogen cavitation bomb (Kontes Glass Co.; Vineland, N.J.) after equilibration at 30 atm (3×10^6N/m^2) for 1 hour at 40° C. After centrifugation, the supernatant of this preparation was passed through a 0.45 micron filter and designated as soluble "lysate".
as §2

[3] = tested on: Mono P-purified enzyme (neutral thiol proteinase); test: Inhibition of MonoP purified enzyme, Azocoll assay; type: biochemical, Entamoeba histolytica; conditions: for Effect of inhibitor on proteolytic activity of purified enzyme: at the concentrations tested (Table I); for Activity as % of control (without inhibitor), Mono P-purified Enzyme: Azocoll assay
Method: Fractions of peak activity from the anion exchange column were pooled and dialyzed overnight against buffer (25 mM bis-Tris, 2 mM DTT, pH 7.1) and applied to a MonoP chromatofocusing column at a flow rate of 0.25 ml/min. Typically, about 3 ml at 0.5 mg/ml were injected. Protein was eluted at a flow rate of 0.5 ml/min over a pH gradient of 7-5 formed with 10% Polybuffer 74, pH 5. (Polybuffer 74 is the Trademark of Pharmacia Inc., 800 Centennial Avenue, Piscataway, NJ 08854 for an amphoteric chromatofocusing buffer.) The gradient was generated with the GP-250 gradient programmer and continuously monitored with a pH meter and flow cell. Fractions were collected and checked for activity as described above.
(§3) Azocollytic activity was measured by incubation of 3 mg Azocoll with 10-100 microliters of enzyme (1 ml reaction volume) for 3-16 hours at 37° C. The tubes were then vortexed, microfuged, and the amount of degradation determined from the absorbance of the supernatant at 540 nm (A540). Control tubes were incubated without enzyme; bovine trypsin (5 micrograms; Sigma) was used to determine the total available substrate.
(§4) All inhibitors were obtained from Sigma except pepstatin A (Transformation Research, Inc., Farminham, MA) and bovine serum (Biofluids). TLCK was prepared as a stock solution in dimethyl sulfoxide (DMSO). Phenlylmethylsulfonyl fluoride (PMSF), pepstatin A, and 1,10-phenanthroline stock solutions were made up in ethanol. An equal volume of DMSO or ethanol alone was tested with enzynme and inhibition was calculated relative to the appropriate solvent control.

Plasminogen = Plasminogen activator assay (125I-fibrin plates); type: biochemical; conditions: 3 hours; 100 microliters culture supernatant or lysate; urokinase 10 ploug units; less plasminogen-free control
Method: Plasminogen activator activity was determined by the method of Unkeless, et al. (1973) as modified by Aggeler, et al. (1981). Briefly, 24-well plates were coated with [^125 I]-labeled fibrinogen, and incubated with calf serum for two hours at 37° C. to convert fibrinogen to fibrin. Plasminogen (280 ng; final concentration, 6 nM) was added in 50 mM Tris/HCl (pH 7.8) with 100 microliters of culture supernatant or amebic lysate or 50 microliters of MonoP-purified enzyme, to a final volume of 0.5 ml. Controls were incubated without plasminogen added. Aliquots of supernatant (50 microliters) from quadruplicate wells were counted in a gamma counter (Auto-Gamma 500; Packard Instrument Corp.; Downer's Grove, IL). Total available fibrin was determined by trypsin digest. Urokinase (10 ploug units, Calbiochem; La Jolla, CA) was assayed for comparison. Results were expressed as the percentage of total available fibrin degraded less the percentage degraded by the corresponding plasminogen-free control.

neutral thiol proteinase = test: Effect of DTT on enzyme activity in assays; type: biochemical, Entamoeba histolytica; conditions: 2 mM DTT
Method: 2 mM DTT was maintained throughout as it enhanced activity 2-4-fold in assays and prolonged stability of the enzyme during storage. Even so, as much as 25% of the activity was lost per day in storage at -20° C.
All assays were performed in 100 mM Tris/HCl, 2 mM DTT, pH 7.4 unless otherwise noted.

[4] = tested on: culture supernatant proteinase activity (Entamoeba histolytica trophozoites); test: Inhibition of culture supernatant proteolytic activity, Azocoll assay; type: biochemical; conditions: inhibitor 2 mM
Method: as §1, §3, §4

type I collagen = test: Degradation of type I collagen, SDS-PAGE; type: biochemical, bovine; conditions: 3.5 hours at 37° C.
Method: 40 microgram aliquots of fibronectin (Bethesda Research Laboratories (BRL); Bethesda, MD), laminin (BRL), or type 1 collagen ("Vitrogen 100"), (Vitrogen 100 is the Trademark of Collagen Corp., Palo Alto, CA for a sterile solution of purified bovine dermal type I collagen), diluted to 1 mg/ml in buffer with 150 mM NaCl, were mixed with 40 microliters of MonoP purified enzyme or 10-20 microliters of culture supernatant. Volumes were brought to 80 microliters with 100 mM Tris, pH 7.2, and DTT was added to a final concentration of 2 mM. Samples were incubated for 3.5 hours (fibronectin and collagen) or 20 hours (laminin) at 37° C. along with matched amounts of substrate or enzyme alone as controls. Collagen was also incubated with 0.5 micrograms of TPCK trypsin (trypsin with tosyl-phenylalanine-chloromethyl-ketone to inhibit any contaminating chymotrypsin, (Worthington Biochemical Corp.; Freehold, NJ) to assay for non-specific cleavage.
Reactions were terminated with 2x sample buffer, and analyzed by SDS-PAGE (laminin with 5% and 10% gels; fibronectin with 7% gels; collagen with 10% gels) for evidence of degradation; 80 microliters was loaded into each lane.

[5] = at the concentrations tested (Table I)

Molecule: Cc1ccc(S(=O)(=O)N[C@@H](CCCCN)C(=O)CCl)cc1 [tosyl-lysyl-chloromethyl ketone (TLCK), tosyl-lysyl-chloromethyl ketone]
- Activity as % of control (without inhibitor), Culture Supernatant ([1]; inhibitor 0.1 mM, 20 min): 0 % of control
- Effect of inhibitor on proteolytic activity of lysate and culture supernatant [2, 5]: completely inhibited
- Effect of inhibitor on proteolytic activity of purified enzyme [3]: completely inhibited
- Activity as % of control (without inhibitor), Mono P-purified Enzyme ([3]; inhibitor 0.1 mM): 0 % of control

Molecule: O=C(O)CN(CCN(CC(=O)O)CC(=O)O)CC(=O)O [ethylenediaminetetracetic acid (EDTA), ethylenediaminetetracetic acid]
- Activity as % of control (without inhibitor), Culture Supernatant ([1]; inhibitor 10 mM, 20 min): 100 % of control
- Effect of inhibitor on proteolytic activity of lysate and culture supernatant [2]: not affected
- Activity as % of control (without inhibitor), Mono P-purified Enzyme ([3]; inhibitor 10 mM): 100 % of control

Molecule: CCN1C(=O)C=CC1=O [N--ethylmaleimide (NEM), N-ethylmaleimide]
- Activity as % of control (without inhibitor), Culture Supernatant ([1]; inhibitor 5 mM, 20 min preincubation): 5 % of control
- Effect of inhibitor on proteolytic activity of lysate and culture supernatant [2, 5]: completely inhibited
- Effect of inhibitor on proteolytic activity of purified enzyme [3]: completely inhibited
- Activity as % of control (without inhibitor), Mono P-purified Enzyme ([3]; inhibitor 5 mM): 0 % of control

Molecule: urokinase
- available fibrin degraded through plasminogen activation (Plasminogen): 38%

Molecule: alpha1 -proteinase inhibitor: protein proteinase inhibitor obtained from Sigma
- Effect of inhibitor on proteolytic activity of purified enzyme [3]: completely inhibited

Molecule: CC(C)CC(=O)N[C@H](C(=O)N[C@H](C(=O)N[C@@H](CC(C)C)[C@@H](O)CC(=O)N[C@@H](C)C(=O)N[C@@H](CC(C)C)[C@@H](O)CC(=O)O)C(C)C)C(C)C [pepstatin A] (Isovaleryl-VV[Sta]A[Sta]-OH)
- Activity as % of control (without inhibitor), Culture Supernatant ([1]; inhibitor 100 microgram/ml, 20 min): 100 % of control
- Effect of inhibitor on proteolytic activity of lysate and culture supernatant [2, 5]: not affected
- Activity as % of control (without inhibitor), Mono P-purified Enzyme ([3]; inhibitor 100 microgram/ml): 100 % of control

Molecule: O=C(O)CI [iodoacetate]
- Activity as % of control (without inhibitor), Culture Supernatant ([1]; inhibitor 3 mM, 20 min): 0 % of control
- Effect of inhibitor on proteolytic activity of lysate and culture supernatant [2]: completely inhibited
- Effect of inhibitor on proteolytic activity of purified enzyme [3]: completely inhibited
- Activity as % of control (without inhibitor), Mono P-purified Enzyme ([3]; inhibitor 3 mM): 0 % of control

Molecule: O[C@H](CS)[C@H](O)CS (racemic) [DTT, DL-dithiothreitol]
- enhancement of enzyme activity in assays (neutral thiol proteinase): 2-4 -fold

Molecule: c1cnc2c(c1)ccc1cccnc12 [1,10-phenanthroline]
- Activity as % of control (without inhibitor), Culture Supernatant ([1]; inhibitor 2 mM, 20 min): 100 % of control
- Effect of inhibitor on proteolytic activity of lysate and culture supernatant [2, 5]: not affected
- Activity as % of control (without inhibitor), Mono P-purified Enzyme ([3]; inhibitor 2 mM): 100 % of control

Molecule: CC(=O)N[C@@H](CC(C)C)C(=O)N[C@@H](CC(C)C)C(=O)N[C@H](C=O)CCCNC(=N)N [leupeptin]
- Activity as % of control (without inhibitor), Culture Supernatant ([1]; inhibitor 10 microM, 20 min): 68 % of control
- Effect of inhibitor on proteolytic activity of purified enzyme [3]: completely inhibited
- Activity as % of control (without inhibitor), Mono P-purified Enzyme ([3]; inhibitor 10 microM): 16 % of control
- Activity as % of control (without inhibitor), Mono P-purified Enzyme ([3]; inhibitor 50 microM): 0 % of control

Molecule: O=S(=O)(F)Cc1ccccc1 [phenylmethylsulfonyl fluoride (PMSF), phenylmethylsulfonyl fluoride]
- Activity as % of control (without inhibitor), Culture Supernatant [4]: 100 % of control
- Effect of inhibitor on proteolytic activity of lysate and culture supernatant [2, 5]: not affected
- Activity as % of control (without inhibitor), Mono P-purified Enzyme ([3]; inhibitor 2 mM): 100 % of control

B1: trypsin: TPCK trypsin (Worthington) used to assay non-specific cleavage of collagen (protein, UniProt P00760 24-246, looked up)
Serine protease 1: IVGGYTCGANTVPYQVSLNSGYHFCGGSLINSQWVVSAAHCYKSGIQVRLGEDNINVVEGNEQFISASKSIVHPSYNSNTLNNDIMLIKLKSAASLNSRVASISLPTSCASAGTQCLISGWGNTKSSGTSYPDVLKCLKAPILSDSSCKSAYPGQITSNMFCAGYLEGGKDSCQGDSGGPVVCSGKLQGIVSWGSGCAQKNKPGVYTKVCNYVSWIKQTIASN
modifications: TPCK-treated
notes: TPCK trypsin (Worthington) used to assay non-specific cleavage of collagen
- degradation of type I collagen (type I collagen): lack of non-specific proteolysis
